From patent publication US20130065818A1, “Arylamide Compounds And Compositions And Uses Thereof” (POLYMEDIX, priority 2006, published 2013)
Values after ≈ are worked out from the molar mass of the structure shown. Like-named read-outs stand apart in the source and are kept apart here.

Columns and labels:
S. aureus ATCC 27660 = assay: MIC, control bacteria (Example 8); assay type: cell-based
Description: • Mueller-Hinton Broth in tubes was inoculated with 25 ocular isolates of Staphylococcus aureus fluoroquinolone-susceptible, Staphylococcus aureus fluoroquinolone-resistant, Staphylococcus epidermidis (Coagulase-negative Staphylococcus) fluoroquinolone-susceptible, Staphylococcus epidermidis (Coagulase-negative Staphylococcus) fluoroquinolone-resistant, Pseudomonas aeruginosa and Serratia marcescens, plus two controls (Staphylococcus aureus and E. coli) and incubated at 37° C. overnight on a shaker set at 250 rpm.
Control Bacteria—The two control bacteria (Staphylococcus aureus and E. coli) were treated as above.
Control Bacteria Set #1—this set of control bacteria were treated as the Streptococcus pneumoniae, Streptococcus viridans and Moraxella species (including Moraxella catarrhalis) test isolates above; the control bacteria underwent the same conditions as the test Streptococcus pneumoniae, Streptococcus viridans and Moraxella species (including Moraxella catarrhalis) isolates. This set of control bacteria was to determine whether there was a difference in the MICs by performing the MIC determinations in 2% lysed horse red blood cells with the standard method performed in Mueller-Hinton broth.
Control Bacteria Set #2—the control bacteria were added to 5 ml of Mueller-Hinton Broth without the 2% lysed horse red blood cells to achieve the standard inoculum concentration. This set of control bacteria is the normal control to determine whether the compounds are at the target MICs.
Control Bacteria Set #1—this set of control bacteria were treated as the Haemophilus influenzae test isolates above; the control bacteria underwent the same conditions as the test Haemophilus influenzae isolates. This set of control bacteria is to determine whether there was a difference in the MICs by performing the MIC determinations in HTM broth with the standard method performed in Mueller-Hinton broth.
Control Bacteria Set #2—the control bacteria were added to 5 ml of Mueller-Hinton Broth to achieve the standard inoculum concentration. This set of control bacteria is the normal control to determine whether the compounds are at the target MICs.
Ninety μl of the bacterial suspensions was dispensed in each well from column 1 to column 12. Each bacterial isolate was placed in one row of a 96 well polypropylene plate containing the test agents. The plates were placed on shaker at 15 minutes at room temperature, and then incubated at 37° C. overnight. MICs were determined visually as the lowest concentration of drug that inhibits visible bacterial growth.

Serratia marcescens = assay: MIC, 25 ocular isolates, broth microdilution (Example 8); assay type: cell-based
[1] = Control Bacteria S. aureus ATCC 27660

What does the source list for `N=C(N)NCCCCC(=O)Nc1cc(C(F)(F)F)cc(NC(=O)c2cnc(C(=O)Nc3cc(C(F)(F)F)cc(NC(=O)CCCCNC(=N)N)c3SCCN)cn2)c1SCCN` [Oligomer 5]?
Decrease of activity by addition of 2% lysed horse red blood cells to Mueller-Hinton broth (S. aureus ATCC 27660; [1]): increase or have no effect; Decrease of activity by use of HTM broth (S. aureus ATCC 27660; [1]): approximately 8 fold; MIC (S. aureus ATCC 27660; Control Bacteria Set #1, run with Haemophilus influenzae MIC test, read-out: MIC): 4 µg/mL (≈ 4.36 µM); MIC (S. aureus ATCC 27660; S. aureus ATCC 27660): 0.78 µg/mL (≈ 0.851 µM); MIC (S. aureus ATCC 27660; S. aureus ATCC 27660, Control for MIC Test SA-FQR, first batch): 8 µg/mL (≈ 8.72 µM); MIC (S. aureus ATCC 27660; S. aureus ATCC 27660, Control for MIC Test SA-FQS, first batch): 16 µg/mL (≈ 17.4 µM); MIC (S. aureus ATCC 27660; S. aureus ATCC 27660, new batches, Control Only 1): 0.25 µg/mL (≈ 0.273 µM); MIC (S. aureus ATCC 27660; S. aureus ATCC 27660, new batches, Control Only 2): 0.25 µg/mL (≈ 0.273 µM); MIC (S. aureus ATCC 27660; S. aureus ATCC 27660, new batches, Control Only 3): 0.5 µg/mL (≈ 0.545 µM); MIC (S. aureus ATCC 27660; S. aureus ATCC 27660, new batches, Control Only 4): 0.5 µg/mL (≈ 0.545 µM); MIC (S. aureus ATCC 27660; Staphylococcus aureus, ATCC27660, Control Bacteria Set #1, run with Moraxella MIC test, read-out: MIC): 1 µg/mL (≈ 1.09 µM); MIC (S. aureus ATCC 27660; Staphylococcus aureus, ATCC27660, Control Only 1, read-out: MIC of control bacteria on day of MIC testing): 0.25 µg/mL; MIC (S. aureus ATCC 27660; Staphylococcus aureus, ATCC27660, Control Only 2, read-out: MIC of control bacteria on day of MIC testing): 0.25 µg/mL; MIC (S. aureus ATCC 27660; Staphylococcus aureus, ATCC27660, Control Only 3, read-out: MIC of control bacteria on day of MIC testing): 0.5 µg/mL; MIC (S. aureus ATCC 27660; Staphylococcus aureus, ATCC27660, Control Only 4, read-out: MIC of control bacteria on day of MIC testing): 0.5 µg/mL; MIC (S. aureus ATCC 27660; Staphylococcus aureus, ATCC27660, S. aureus ATCC 27660, Control Bacteria Set #1 (same conditions as test isolates), run with Streptococcus pneumoniae MIC test, read-out: MIC): 1 µg/mL (≈ 1.09 µM); MIC (S. aureus ATCC 27660; Staphylococcus aureus, ATCC27660, S. aureus ATCC 27660, Control Bacteria Set #1 (same conditions as test isolates), run with Streptococcus viridans group MIC test, read-out: MIC): 1 µg/mL (≈ 1.09 µM); MIC (S. aureus ATCC 27660; Staphylococcus aureus, ATCC27660, S. aureus ATCC 27660, Control Bacteria Set #2 (Mueller-Hinton Broth), run with Streptococcus pneumoniae MIC test, read-out: MIC): 2 µg/mL (≈ 2.18 µM); MIC (S. aureus ATCC 27660; Staphylococcus aureus, ATCC27660, S. aureus ATCC 27660, Control Bacteria Set #2 (Mueller-Hinton Broth), run with Streptococcus viridans group MIC test, read-out: MIC): 1 µg/mL (≈ 1.09 µM); MIC (S. aureus ATCC 27660; Staphylococcus aureus, ATCC27660, S. aureus ATCC 27660, control bacteria run with Pseudomonas aeruginosa MIC test, read-out: MIC): 0.25 µg/mL (≈ 0.273 µM); MIC (S. aureus ATCC 27660; Staphylococcus aureus, ATCC27660, S. aureus ATCC 27660, control bacteria run with S. aureus fluoroquinolone-resistant MIC test, read-out: MIC): 8 µg/mL (≈ 8.72 µM); MIC (S. aureus ATCC 27660; Staphylococcus aureus, ATCC27660, S. aureus ATCC 27660, control bacteria run with S. aureus fluoroquinolone-susceptible MIC test, read-out: MIC): 16 µg/mL (≈ 17.4 µM); MIC (S. aureus ATCC 27660; Staphylococcus aureus, ATCC27660, S. aureus ATCC 27660, control bacteria run with S. epidermidis fluoroquinolone-resistant MIC test, read-out: MIC): 0.25 µg/mL (≈ 0.273 µM); MIC (S. aureus ATCC 27660; Staphylococcus aureus, ATCC27660, S. aureus ATCC 27660, control bacteria run with S. epidermidis fluoroquinolone-susceptible MIC test, read-out: MIC): 0.25 µg/mL (≈ 0.273 µM); MIC (S. aureus ATCC 27660; Staphylococcus aureus, ATCC27660, S. aureus ATCC 27660, control bacteria run with Serratia marcescens MIC test, read-out: MIC): 0.5 µg/mL (≈ 0.545 µM); MIC (S. aureus ATCC 27660; Staphylococcus aureus, ATCC27660, S. aureus ATCC 27660, MIC previously obtained (target MIC), printed in parentheses, read-out: MIC for Control Bacteria within the parentheses): 0.78 µg/mL (≈ 0.851 µM); MIC (S. aureus ATCC 27660; Staphylococcus aureus, ATCC27660, S. aureus ATCC27660, read-out: MIC): 0.78 µg/mL (≈ 0.851 µM); MIC (S. aureus ATCC 27660; Staphylococcus aureus, ATCC27660, control for MIC test HI (Control Bacteria Set #2), read-out: MIC of control bacteria on day of MIC testing): 0.5 µg/mL; MIC (S. aureus ATCC 27660; Staphylococcus aureus, ATCC27660, control for MIC test MS (Control Bacteria Set #2), read-out: MIC of control bacteria on day of MIC testing): 0.5 µg/mL; MIC (S. aureus ATCC 27660; Staphylococcus aureus, ATCC27660, control for MIC test PA, read-out: MIC of control bacteria on day of MIC testing): 0.25 µg/mL; MIC (S. aureus ATCC 27660; Staphylococcus aureus, ATCC27660, control for MIC test SA-FQR, read-out: MIC of control bacteria on day of MIC testing): 8 µg/mL; MIC (S. aureus ATCC 27660; Staphylococcus aureus, ATCC27660, control for MIC test SA-FQS, read-out: MIC of control bacteria on day of MIC testing): 16 µg/mL; MIC (S. aureus ATCC 27660; Staphylococcus aureus, ATCC27660, control for MIC test SE-FQR, read-out: MIC of control bacteria on day of MIC testing): 0.25 µg/mL; MIC (S. aureus ATCC 27660; Staphylococcus aureus, ATCC27660, control for MIC test SE-FQS, read-out: MIC of control bacteria on day of MIC testing): 0.25 µg/mL; MIC (S. aureus ATCC 27660; Staphylococcus aureus, ATCC27660, control for MIC test SM, read-out: MIC of control bacteria on day of MIC testing): 0.5 µg/mL; MIC (S. aureus ATCC 27660; Staphylococcus aureus, ATCC27660, control for MIC test SP, read-out: MIC of control bacteria on day of MIC testing): 2 µg/mL; MIC (S. aureus ATCC 27660; Staphylococcus aureus, ATCC27660, control for MIC test SV, read-out: MIC of control bacteria on day of MIC testing): 1 µg/mL; MIC (S. aureus ATCC 27660; Staphylococcus aureus, ATCC27660, reference MIC printed in parentheses beside the day's control value, read-out: MIC for Control Bacteria (within the parentheses)): 0.78 µg/mL (≈ 0.851 µM); MIC50 (Serratia marcescens; 25 isolates, Row 13, >128 was Replaced with 256): 256 µg/mL (≈ 279 µM); MIC90 (Serratia marcescens; 25 isolates, Row 22, >128 was Replaced with 256): 256 µg/mL (≈ 279 µM); Range of MICs (Serratia marcescens; 25 isolates, Summary of Results, >128 was Replaced with 256): 8 to 256 µg/mL; MIC (Serratia marcescens; Serratia marcescens, 25 ocular isolates, read-out: Median MIC): 128 µg/mL (≈ 140 µM); MIC (Serratia marcescens; Serratia marcescens, isolate 1—K1681, read-out: MIC): > 128 µg/mL; MIC (Serratia marcescens; Serratia marcescens, isolate 2—K1674, read-out: MIC): > 128 µg/mL; MIC (Serratia marcescens; Serratia marcescens, isolate 3—K1558, read-out: MIC): > 128 µg/mL; MIC (Serratia marcescens; Serratia marcescens, isolate 4—K1538, read-out: MIC): > 128 µg/mL; MIC (Serratia marcescens; Serratia marcescens, isolate 5—K1503, read-out: MIC): > 128 µg/mL; MIC (Serratia marcescens; Serratia marcescens, isolate 6—K1216, read-out: MIC): > 128 µg/mL; MIC (Serratia marcescens; Serratia marcescens, isolate 7—K1496, read-out: MIC): > 128 µg/mL; MIC (Serratia marcescens; Serratia marcescens, isolate 8—K1481, read-out: MIC): > 128 µg/mL; MIC (Serratia marcescens; Serratia marcescens, isolate 9—K1470, read-out: MIC): > 128 µg/mL; MIC (Serratia marcescens; Serratia marcescens, isolate 10—K1468, read-out: MIC): > 128 µg/mL; MIC (Serratia marcescens; Serratia marcescens, isolate 11—K1467, read-out: MIC): > 128 µg/mL; MIC (Serratia marcescens; Serratia marcescens, isolate 12—K1462, read-out: MIC): > 128 µg/mL; MIC (Serratia marcescens; Serratia marcescens, isolate 13—K1461, read-out: MIC): 128 µg/mL (≈ 140 µM); MIC (Serratia marcescens; Serratia marcescens, isolate 14—K1413, read-out: MIC): > 128 µg/mL; MIC (Serratia marcescens; Serratia marcescens, isolate 15—K1402, read-out: MIC): 8 µg/mL (≈ 8.72 µM); MIC (Serratia marcescens; Serratia marcescens, isolate 16—K1357, read-out: MIC): > 128 µg/mL; MIC (Serratia marcescens; Serratia marcescens, isolate 17—K1351, read-out: MIC): 64 µg/mL (≈ 69.8 µM); MIC (Serratia marcescens; Serratia marcescens, isolate 18—K1327, read-out: MIC): > 128 µg/mL; MIC (Serratia marcescens; Serratia marcescens, isolate 19—K1321, read-out: MIC): > 128 µg/mL; MIC (Serratia marcescens; Serratia marcescens, isolate 20—K1315, read-out: MIC): > 128 µg/mL; MIC (Serratia marcescens; Serratia marcescens, isolate 21—K1306, read-out: MIC): > 128 µg/mL; MIC (Serratia marcescens; Serratia marcescens, isolate 22—K1290, read-out: MIC): > 128 µg/mL; MIC (Serratia marcescens; Serratia marcescens, isolate 23—K1265, read-out: MIC): > 128 µg/mL; MIC (Serratia marcescens; Serratia marcescens, isolate 24—K1263, read-out: MIC): > 128 µg/mL; MIC (Serratia marcescens; Serratia marcescens, isolate 25—K1239, read-out: MIC): > 128 µg/mL; MIC (Serratia marcescens; Serratia marcescens, n=25 per group, read-out: Median MIC): 256 µg/mL (≈ 279 µM); MIC50 (Serratia marcescens; Serratia marcescens, 25 isolates, Summary of Results, >128 was Replaced with 256, read-out: MIC50): 256 µg/mL (≈ 279 µM); MIC90 (Serratia marcescens; Serratia marcescens, 25 isolates, Summary of Results, >128 was Replaced with 256, read-out: MIC90): 256 µg/mL (≈ 279 µM); MIC (Serratia marcescens; Serratia marcescens, 25 isolates, Summary of Results, >128 was Replaced with 256, read-out: Median MIC): 256 µg/mL (≈ 279 µM); MIC50 (Serratia marcescens; n=25 per group): 256 µg/mL (≈ 279 µM); MIC90 (Serratia marcescens; n=25 per group): 256 µg/mL (≈ 279 µM); Range of MICs (Serratia marcescens; n=25 per group): 8 to 256 µg/mL
